According to PubChem BioAssay (NCI):
In brackets after ≈: the same amount, converted by molar mass.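 Test compounds were applied to cells in 96-well plates for 48 hours at 5 doses. The concentration for 50% growth inhibition is given as GI50. Definition used: TGI = concentration required for complete inhibition of growth.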

Tests used:
Assay in all cases: DTP human tumour cell line panel, 48 h
EKVX NSCLC = tested on: EKVX NSCLC
NCI-H522 lung = tested on: NCI-H522 lung
A498 renal = tested on: A498 renal
KM12 colon = tested on: KM12 colon
LOX IMVI melanoma = tested on: LOX IMVI melanoma
HCC-2998 colon = tested on: HCC-2998 colon
UACC-62 melanoma = tested on: UACC-62 melanoma
NCI/ADR-RES ovarian = tested on: NCI/ADR-RES ovarian
TK-10 renal = tested on: TK-10 renal
DU-145 prostate = tested on: DU-145 prostate
MDA-N = tested on: MDA-N
HL-60(TB) leukemia = tested on: HL-60(TB) leukemia
SK-MEL-28 melanoma = tested on: SK-MEL-28 melanoma
CCRF-CEM leukemia = tested on: CCRF-CEM leukemia
COLO 205 colon = tested on: COLO 205 colon
HS 578T breast = tested on: HS 578T breast
M14 melanoma = tested on: M14 melanoma
MDA-MB-435 = tested on: MDA-MB-435
U251 CNS = tested on: U251 CNS
786-0 renal = tested on: 786-0 renal
K-562 leukemia = tested on: K-562 leukemia
UACC-257 melanoma = tested on: UACC-257 melanoma
SNB-75 CNS = tested on: SNB-75 CNS
OVCAR-4 ovarian = tested on: OVCAR-4 ovarian
MALME-3M melanoma = tested on: MALME-3M melanoma
HCT-15 colon = tested on: HCT-15 colon
SK-OV-3 ovarian = tested on: SK-OV-3 ovarian
SF-295 CNS = tested on: SF-295 CNS
MCF7 breast = tested on: MCF7 breast
NCI-H460 lung = tested on: NCI-H460 lung
IGROV1 ovarian = tested on: IGROV1 ovarian
SK-MEL-2 melanoma = tested on: SK-MEL-2 melanoma
SNB-19 CNS = tested on: SNB-19 CNS
UO-31 renal = tested on: UO-31 renal
BT-549 breast = tested on: BT-549 breast
HT29 colon = tested on: HT29 colon
PC-3 prostate = tested on: PC-3 prostate
HOP-62 NSCLC = tested on: HOP-62 NSCLC
SR leukemia = tested on: SR leukemia
SF-539 CNS = tested on: SF-539 CNS
SK-MEL-5 melanoma = tested on: SK-MEL-5 melanoma
SW-620 colon = tested on: SW-620 colon
ACHN renal = tested on: ACHN renal
NCI-H226 lung = tested on: NCI-H226 lung
OVCAR-5 ovarian = tested on: OVCAR-5 ovarian
RXF 393 renal = tested on: RXF 393 renal
HOP-92 NSCLC = tested on: HOP-92 NSCLC
HCT-116 colon = tested on: HCT-116 colon
MDA-MB-231 breast = tested on: MDA-MB-231 breast
SN12C renal = tested on: SN12C renal
OVCAR-3 ovarian = tested on: OVCAR-3 ovarian
CAKI-1 renal = tested on: CAKI-1 renal
NCI-H23 lung = tested on: NCI-H23 lung
MOLT-4 leukemia = tested on: MOLT-4 leukemia
OVCAR-8 ovarian = tested on: OVCAR-8 ovarian
A549 NSCLC = tested on: A549 NSCLC
SF-268 CNS = tested on: SF-268 CNS
RPMI-8226 leukemia = tested on: RPMI-8226 leukemia

`CC(=O)OC1CCC(OC(C)=O)[C@H]2[C@@H]1[C@@H]1S[C@H]2c2ccccc21` (stereo partly specified) gave a GI50 (EKVX NSCLC) of 54.8 µg/mL (≈ 165 µM), a GI50 (NCI-H522 lung) of 32.5 µg/mL (≈ 97.7 µM) and a GI50 (A498 renal) of 43.9 µg/mL (≈ 132 µM). It also gave a GI50 (KM12 colon) of 49 µg/mL (≈ 147 µM), a GI50 (LOX IMVI melanoma) of 80.6 µg/mL (≈ 242 µM) and a GI50 (HCC-2998 colon) of 50.1 µg/mL (≈ 151 µM). The GI50 (UACC-62 melanoma) was 41.4 µg/mL (≈ 124 µM), the GI50 (NCI/ADR-RES ovarian) was 99.2 µg/mL (≈ 298 µM) and the GI50 (TK-10 renal) was 35.7 µg/mL (≈ 108 µM). For the same molecule, the GI50 (DU-145 prostate) was 85.3 µg/mL (≈ 257 µM), the GI50 (MDA-N) was 24.2 µg/mL (≈ 72.8 µM) and the GI50 (HL-60(TB) leukemia) was 22 µg/mL (≈ 66.1 µM). It also gave a GI50 (SK-MEL-28 melanoma) of 97.3 µg/mL (≈ 293 µM), a GI50 (CCRF-CEM leukemia) of 36.4 µg/mL (≈ 109 µM) and a GI50 (COLO 205 colon) of 59.1 µg/mL (≈ 178 µM). For the same molecule, the GI50 (HS 578T breast) was 76.1 µg/mL (≈ 229 µM), the GI50 (M14 melanoma) was 27.9 µg/mL (≈ 84 µM) and the GI50 (MDA-MB-435) was 21.6 µg/mL (≈ 64.9 µM). For the same molecule, the GI50 (U251 CNS) was 81.9 µg/mL (≈ 246 µM), the GI50 (786-0 renal) was 85.6 µg/mL (≈ 257 µM) and the GI50 (K-562 leukemia) was 35.9 µg/mL (≈ 108 µM). For the same molecule, the GI50 (UACC-257 melanoma) was 76.8 µg/mL (≈ 231 µM), the GI50 (SNB-75 CNS) was 48.1 µg/mL (≈ 145 µM) and the GI50 (OVCAR-4 ovarian) was 31.3 µg/mL (≈ 94.1 µM). The GI50 (MALME-3M melanoma) was 62.1 µg/mL (≈ 187 µM), the GI50 (HCT-15 colon) was 93.7 µg/mL (≈ 282 µM) and the GI50 (SK-OV-3 ovarian) was 4.09 µg/mL (≈ 12.3 µM). The GI50 (SF-295 CNS) was 36 µg/mL (≈ 108 µM).
For `Nc1ccc2c(c1)Cc1ccccc1-2`, the TGI (EKVX NSCLC) was > 100 µM, the TGI (MCF7 breast) was > 100 µM and the TGI (A498 renal) was > 100 µM. For the same molecule, the TGI (NCI-H460 lung) was > 100 µM, the TGI (IGROV1 ovarian) was > 100 µM and the TGI (KM12 colon) was > 100 µM. For the same molecule, the TGI (SK-MEL-2 melanoma) was > 100 µM, the TGI (LOX IMVI melanoma) was > 100 µM and the TGI (HCC-2998 colon) was > 100 µM. The TGI (SNB-19 CNS) was > 100 µM, the TGI (UO-31 renal) was > 100 µM and the TGI (BT-549 breast) was > 100 µM. For the same molecule, the TGI (UACC-62 melanoma) was > 100 µM, the TGI (NCI/ADR-RES ovarian) was > 100 µM and the TGI (HT29 colon) was > 100 µM. The TGI (PC-3 prostate) was > 100 µM, the TGI (TK-10 renal) was > 100 µM and the TGI (HOP-62 NSCLC) was > 100 µM. The TGI (SR leukemia) was > 100 µM, the TGI (MDA-N) was > 100 µM and the TGI (HL-60(TB) leukemia) was > 100 µM. The TGI (SF-539 CNS) was > 100 µM, the TGI (SK-MEL-28 melanoma) was > 100 µM and the TGI (CCRF-CEM leukemia) was > 100 µM. For the same molecule, the TGI (SK-MEL-5 melanoma) was > 100 µM, the TGI (COLO 205 colon) was > 100 µM and the TGI (SW-620 colon) was > 100 µM. For the same molecule, the TGI (ACHN renal) was > 100 µM, the TGI (HS 578T breast) was > 100 µM and the TGI (NCI-H226 lung) was > 100 µM. The TGI (OVCAR-5 ovarian) was > 100 µM, the TGI (RXF 393 renal) was > 100 µM and the TGI (M14 melanoma) was > 100 µM. The TGI (HOP-92 NSCLC) was > 100 µM, the TGI (HCT-116 colon) was > 100 µM and the TGI (MDA-MB-231 breast) was > 100 µM. The TGI (MDA-MB-435) was > 100 µM, the TGI (U251 CNS) was > 100 µM and the TGI (786-0 renal) was > 100 µM. For the same molecule, the TGI (K-562 leukemia) was > 100 µM, the TGI (UACC-257 melanoma) was > 100 µM and the TGI (SN12C renal) was > 100 µM. For the same molecule, the TGI (OVCAR-3 ovarian) was > 100 µM, the TGI (SNB-75 CNS) was 94.3 µM and the TGI (CAKI-1 renal) was > 100 µM. The TGI (NCI-H23 lung) was > 100 µM, the TGI (OVCAR-4 ovarian) was > 100 µM and the TGI (MOLT-4 leukemia) was > 100 µM. For the same molecule, the TGI (OVCAR-8 ovarian) was > 100 µM, the TGI (MALME-3M melanoma) was > 100 µM and the TGI (HCT-15 colon) was > 100 µM. The TGI (SK-OV-3 ovarian) was > 100 µM, the TGI (A549 NSCLC) was > 100 µM and the TGI (SF-295 CNS) was > 100 µM.
Work on `COC(=O)C([C@H]1CC[C@H](OCc2ccccc2)[C@@]1(O)COCc1ccccc1)C(C)(O)CCc1ccccc1` (stereo partly specified) yielded a TGI (EKVX NSCLC) of 38.2 µM, a TGI (MCF7 breast) of 25.3 µM and a TGI (NCI-H522 lung) of 26.1 µM. For the same molecule, the TGI (A498 renal) was 28.6 µM, the TGI (IGROV1 ovarian) was 29.3 µM and the TGI (KM12 colon) was 16.4 µM. For the same molecule, the TGI (SK-MEL-2 melanoma) was 25.3 µM, the TGI (LOX IMVI melanoma) was 22.8 µM and the TGI (HCC-2998 colon) was 33.2 µM. For the same molecule, the TGI (SNB-19 CNS) was > 100 µM, the TGI (UO-31 renal) was 23.7 µM and the TGI (BT-549 breast) was 30.8 µM. The TGI (UACC-62 melanoma) was 26.6 µM, the TGI (NCI/ADR-RES ovarian) was 26.5 µM and the TGI (HT29 colon) was 22.2 µM. The TGI (PC-3 prostate) was 16.3 µM, the TGI (TK-10 renal) was 39.9 µM and the TGI (HOP-62 NSCLC) was 29.6 µM. For the same molecule, the TGI (DU-145 prostate) was 72.7 µM, the TGI (SR leukemia) was 26.4 µM and the TGI (MDA-N) was 26.6 µM. It also gave a TGI (SF-539 CNS) of 29.1 µM, a TGI (SK-MEL-28 melanoma) of 30.1 µM and a TGI (CCRF-CEM leukemia) of 60.2 µM. For the same molecule, the TGI (SK-MEL-5 melanoma) was 27.6 µM, the TGI (COLO 205 colon) was 25.8 µM and the TGI (SW-620 colon) was 28.9 µM. The TGI (ACHN renal) was 29.2 µM, the TGI (NCI-H226 lung) was 26.6 µM and the TGI (OVCAR-5 ovarian) was 27 µM. The TGI (RXF 393 renal) was 25.9 µM, the TGI (M14 melanoma) was 22.9 µM and the TGI (HCT-116 colon) was 24.2 µM. The TGI (MDA-MB-231 breast) was 26.2 µM, the TGI (SF-268 CNS) was 22 µM and the TGI (MDA-MB-435) was 29.4 µM. The TGI (U251 CNS) was 27.2 µM, the TGI (786-0 renal) was 27.4 µM and the TGI (K-562 leukemia) was 35.5 µM. For the same molecule, the TGI (UACC-257 melanoma) was 35.1 µM, the TGI (SN12C renal) was 16.2 µM and the TGI (OVCAR-3 ovarian) was 27.2 µM. For the same molecule, the TGI (SNB-75 CNS) was 19.7 µM, the TGI (CAKI-1 renal) was > 100 µM and the TGI (NCI-H23 lung) was 37.8 µM. It also gave a TGI (OVCAR-4 ovarian) of 43.9 µM, a TGI (MOLT-4 leukemia) of 19.7 µM and a TGI (OVCAR-8 ovarian) of 41.5 µM. For the same molecule, the TGI (MALME-3M melanoma) was 25.7 µM, the TGI (HCT-15 colon) was 37.4 µM and the TGI (SK-OV-3 ovarian) was > 100 µM. For the same molecule, the TGI (RPMI-8226 leukemia) was 43.3 µM, the TGI (A549 NSCLC) was 27.1 µM and the TGI (SF-295 CNS) was 23.3 µM.
